Where two headings read alike, the source gives them in different places.
Experiments:
[1] = system: pre-adipocyte stem cells; test: Adipogenic effects in pre-adipocyte stem cells in culture; format: cell-based
[2] = Hyaluronan binding (random phage library screen); details: unbiased screen of 15-mer random phage libraries
Description: Two approaches were used to identify additional adipogenic peptides and to identify the key adipogenic sequences. […] Thus, in the first approach, an unbiased screen was performed to identify hyaluronan-binding peptides using 15-mer random phage libraries. Peptide sequences identified in this screen were sorted for: (a) their alignment to the HA binding region of RHAMM, and (b) their lack of alignment to the HA binding region of CD44.

[3] = system: adipogenesis; test: Adipogenic activity of peptides and peptide fragments, assay not specified; format: cell-based
Description: In the second approach, a series of truncations and alanine mutagenesis on peptide B were performed in order to identify the smallest active sequence. Fragments of peptide B were prepared and assayed for adipogenesis. First, fragments corresponding to the two halves of peptide B were prepared (KLKDENS (SEQ ID NO: 8) and SQLKSEVSK (SEQ ID NO: 13)).

[4] = system: adipogenesis; details: earlier reports, WO 2014/082042 and background; cited from earlier work
[5] = system: adipogenesis in vivo; test: Adipogenesis in vivo, model not specified
[6] = system: dermis of aged rats; test: Rat dermal skin model of adipogenesis (injection into the dermis of aged rats); format: in vivo; details: for adipogenic effects in rat skin: injected into the dermis of aged rats / rat skin
[7] = earlier reports, background and U.S. Pat. No. 6,271,344; cited from earlier work
[8] = system: mammary fat pads of aged female rats; test: In vivo adipogenesis in mammary fat pads of aged female rats (microCT); parameters: species or system rat; details: eight-month-old female rats, 100 μg peptide in 100 μl collagen gel, 7 days, versus collagen only
Description: Peptides were also tested for their ability to stimulate adipogenesis in mammary fat pads of aged (8 month old) female rats in vivo. Mammary fat pads are rich in adipocyte progenitor cells.
Eight-month-old female Sprague Dawley rats (retired breeders) were injected with 100 μl collagen gel (Vitrogen) containing 100 μg peptide into the fourth right mammary fat pad, as depicted in FIG. 10. […] The collagen and peptides were injected at the top of the ROI nearest the nipple. The collagen and peptide diffuse into the fat pad following injection and active peptides target RHAMM-positive progenitor cells present in the fat pad. Collagen alone was injected into the fourth left mammary fat pad as a negative control.
Following injection of the collagen and peptide or collagen alone, animals were maintained on rat chow and water for 7 days and then euthanized. Micro-computed tomography (microCT) imaging of the […] was performed on animals using a Locus Ultra scanner (GE Healthcare, London, ON, Canada). The animals were imaged ex vivo with an X-ray tube voltage of 80 kV and a tube current of 55 mA. Nine hundred projections of data were acquired at an angular increment of 0.4 degrees around the rat in an exposure time of 16 ms. The data were then reconstructed into a 3D volume image with a voxel size of 154 μm. The subcutaneous mammary fat measured in 10×5×3 mm rectangular area (the region of interest (ROI)) below the nipple, avoiding measurement of underlying visceral fat (see the region labeled “fat pad” in FIG. 11). The amount of fat in the ROI was calculated as mass (mg) per ROI.

[9] = system: bone marrow mesenchymal stem cells; test: Adipogenesis in mesenchymal stem cells or papillary fibroblasts, replacement of insulin; format: cell-based; details: depending upon the screening assay used
Description: For example, in bone marrow mesenchymal stem cells, a maximum adipogenic effect was obtained at 1-5 μg of peptide B (SEQ ID NO: 2), depending upon the screening assay used.

[10] = system: nude guinea pig; test: Nude guinea pig model of adipogenesis; details: in vivo

STMMSRSHKTRSHHV [peptide P15-1]
adipogenic effects in pre-adipocyte stem cells in culture [1]: adipogenic effects | binding to hyaluronan (HA) [2]: hyaluronan binding peptide | adipogenesis in tissue culture ([3]; tissue culture): promotes adipogenesis | adipogenic activity [4]: is adipogenic | adipogenesis in vivo [5]: promotes adipogenesis | adipogenic effects in rat skin [6]: adipogenic effects | binding to hyaluronan (HA) [7]: bind to hyaluronan

KLKDENSQLKSEVSK (listed as Homo sapiens) [peptide B]
adipogenic effects in pre-adipocyte stem cells in culture [1]: adipogenic effects | adipogenic activity ([3]; assay not specified): adipogenic activity | adipogenic activity [4]: strongly adipogenic | adipogenesis in vivo in mammary fat pads [8]: mammary fat pad enlargement | amount of peptide giving a maximum adipogenic effect [9]: 1 to 5 µg | fat accumulation ([6]; 25-50 μg of peptide per injection site, rat dermal skin model): induced significant fat accumulation | adipogenic effects in rat skin [6]: adipogenic effects | promoting adipogenesis in a nude guinea pig model [10]: effective in promoting adipogenesis
